Source: patent US11857596B2, “Animal feed additive and animal feed” (priority 2018, dated 2024)
No end group written: not given here.

Columns and labels:
[1] = 500 to 1,000 ppm of quercetin added to the feed; cited from earlier work
[2] = tested on: Caco-2 cells (human intestinal epithelial cells); test: Membrane strengthening experiment (TER recovery of barrier function after TNF-α); type: cell-based; details: for function of strengthening the barrier function (membrane-strengthening ability): result in words, FIG. 1A-1H
intestinal microbiota = details: cited from earlier work
[3] = tested on: Lactobacillus acidophilus; test: Antibacterial spectrum of bacteriocin, spot-on lawn method; type: cell-based; set-up: key: “+” to “+++++”: indicates the strength of antibacterial effect. The more “+”, the stronger the effect.; “+” to “+++++”: indicates the strength of antibacterial effect. The more “+”, the stronger the effect.; “+” to “+++++”: indicates the strength of antibacterial effect. The more “+”, the stronger the effect.; “+” to “+++++”: indicates the strength of antibacterial effect. The more “+”, the stronger the effect.; “+” to “+++++”: indicates the strength of antibacterial effect. The more “+”, the stronger the effect.; “ND”: indicates no effect detected (not detected); details: Nisin A and Duramycin 1 mg/ml, others 10-fold concentrated culture supernatant of producers
Escherichia coli MG1655 = test: as above; type: cell-based; set-up: key: “+” to “+++++”: indicates the strength of antibacterial effect. The more “+”, the stronger the effect.; “+” to “+++++”: indicates the strength of antibacterial effect. The more “+”, the stronger the effect.; “+” to “+++++”: indicates the strength of antibacterial effect. The more “+”, the stronger the effect.; “+” to “+++++”: indicates the strength of antibacterial effect. The more “+”, the stronger the effect.; “+” to “+++++”: indicates the strength of antibacterial effect. The more “+”, the stronger the effect.; “ND”: indicates no effect detected (not detected); details: Nisin A and Duramycin 1 mg/ml, others 10-fold concentrated culture supernatant of producers
Clostridium perfringens = type: cell-based; set-up: key: “+” to “+++++”: indicates the strength of antibacterial effect. The more “+”, the stronger the effect.; “+” to “+++++”: indicates the strength of antibacterial effect. The more “+”, the stronger the effect.; “+” to “+++++”: indicates the strength of antibacterial effect. The more “+”, the stronger the effect.; “+” to “+++++”: indicates the strength of antibacterial effect. The more “+”, the stronger the effect.; “+” to “+++++”: indicates the strength of antibacterial effect. The more “+”, the stronger the effect.; “ND”: indicates no effect detected (not detected); details: Nisin A and Duramycin 1 mg/ml, others 10-fold concentrated culture supernatant of producers
[4] = tested on: Bacteroides fragilis JCM11019; test: Antibacterial spectrum of bacteriocin, spot-on lawn method; type: cell-based; set-up: key: “+” to “+++++”: indicates the strength of antibacterial effect. The more “+”, the stronger the effect.; “+” to “+++++”: indicates the strength of antibacterial effect. The more “+”, the stronger the effect.; “+” to “+++++”: indicates the strength of antibacterial effect. The more “+”, the stronger the effect.; “+” to “+++++”: indicates the strength of antibacterial effect. The more “+”, the stronger the effect.; “+” to “+++++”: indicates the strength of antibacterial effect. The more “+”, the stronger the effect.; “ND”: indicates no effect detected (not detected); details: Nisin A and Duramycin 1 mg/ml, others 10-fold concentrated culture supernatant of producers
Salmonella enterica (SE) = test: Salmonella infection test in chickens (body weight gain and feed conversion ratio); type: in vivo, chickens (broilers)
Experimental: The coated-Tyr and Tyr prepared in the same manner as in Example 2-1 were added to the feed matrix having the composition presented in Table 2 so that the amount of the core material was 200 ppm, to thereby prepare a feed. Broilers at 1 day of age were introduced into a breeding facility for infection test (6 broilers/repeat and 2 repeats/test group), then Salmonella enterica (SE) was orally administered to the broilers at 2 days of age, and the test feed was fed for 21 days to evaluate the body weight gain effect and feed conversion ratio of chickens. Note that a conventional antimicrobial growth promoter, enramycin, was used as a positive control. As enramycin, a commercially available product (“Enramycin F-80” manufactured by Scientific Feed Laboratory Co., Ltd., uncoated) was used as it was.
The results are presented with a negative control of 100. […]
Broilers at 0 days of age were introduced into a breeding facility for infection test (6 broilers/repeat and 2 repeats/test group), then Salmonella enterica (SE) was orally administered to the broilers at 2 days of age, and the test feed was fed for 21 days to evaluate the body weight gain effect and feed conversion ratio. Note that a conventional antimicrobial growth promoter, enramycin, was used as a positive control. As enramycin, a commercially available product (“Enramycin F-80” manufactured by Scientific Feed Laboratory Co., Ltd., uncoated) was used as it was.

[5] = tested on: Enterococcus faecalis AJ110149; test: Antibacterial spectrum of bacteriocin, spot-on lawn method; type: cell-based; set-up: key: “+” to “+++++”: indicates the strength of antibacterial effect. The more “+”, the stronger the effect.; “+” to “+++++”: indicates the strength of antibacterial effect. The more “+”, the stronger the effect.; “+” to “+++++”: indicates the strength of antibacterial effect. The more “+”, the stronger the effect.; “+” to “+++++”: indicates the strength of antibacterial effect. The more “+”, the stronger the effect.; “+” to “+++++”: indicates the strength of antibacterial effect. The more “+”, the stronger the effect.; “ND”: indicates no effect detected (not detected); details: Nisin A and Duramycin 1 mg/ml, others 10-fold concentrated culture supernatant of producers
[6] = tested on: Bifidobacterium thermophilum AJ110569; test: as above; type: cell-based; set-up: key: “+” to “+++++”: indicates the strength of antibacterial effect. The more “+”, the stronger the effect.; “+” to “+++++”: indicates the strength of antibacterial effect. The more “+”, the stronger the effect.; “+” to “+++++”: indicates the strength of antibacterial effect. The more “+”, the stronger the effect.; “+” to “+++++”: indicates the strength of antibacterial effect. The more “+”, the stronger the effect.; “+” to “+++++”: indicates the strength of antibacterial effect. The more “+”, the stronger the effect.; “ND”: indicates no effect detected (not detected); details: Nisin A and Duramycin 1 mg/ml, others 10-fold concentrated culture supernatant of producers
[7] = tested on: Lactobacillus salivarius AJ110152; test: as above; type: cell-based; set-up: key: “+” to “+++++”: indicates the strength of antibacterial effect. The more “+”, the stronger the effect.; “+” to “+++++”: indicates the strength of antibacterial effect. The more “+”, the stronger the effect.; “+” to “+++++”: indicates the strength of antibacterial effect. The more “+”, the stronger the effect.; “+” to “+++++”: indicates the strength of antibacterial effect. The more “+”, the stronger the effect.; “+” to “+++++”: indicates the strength of antibacterial effect. The more “+”, the stronger the effect.; “ND”: indicates no effect detected (not detected); details: Nisin A and Duramycin 1 mg/ml, others 10-fold concentrated culture supernatant of producers
[8] = Table 8, 0-3 week, 10 ppm, SE orally at 2 days of age, control group = 100%

Compound	body weight gain effect (body weight gain efficiency) and feed consumption [1]	feed conversion ratio [1]	activity at 100 µM ([2]; Homo sapiens, Caco-2, material conc. 100 uM, TER barrier function recovery, 24 h, read-out: Recovery ratio (%))	Recovery ratio/ctr ([2]; material conc. 100 uM, comparison value with Ctr (TNFα alone), 24 h)	function of strengthening the barrier function (membrane-strengthening ability) [2]	effect on the intestinal microbiota (intestinal microbiota)	Antibacterial spectrum (strength of antibacterial effect) [3]	Antibacterial spectrum (strength of antibacterial effect) (Escherichia coli MG1655)	Antibacterial spectrum (strength of antibacterial effect) (Clostridium perfringens)	Antibacterial spectrum (strength of antibacterial effect) [4]	BWG (Salmonella enterica (SE); [8])	FCR (Salmonella enterica (SE); [8])	body weight gain effect and feed conversion ratio improvement effect (Salmonella enterica (SE); result in words, Salmonella enterica infected broilers, test feed 21 days)	Antibacterial spectrum (strength of antibacterial effect) [5]	Antibacterial spectrum (strength of antibacterial effect) [6]	Antibacterial spectrum (strength of antibacterial effect) [7]
O=c1c(O)c(-c2ccc(O)c(O)c2)oc2cc(O)cc(O)c12 [Quercetin, quercetin]	did not increase	remained almost unchanged or slightly decreased	138%	1.23	observed to have the function of strengthening the barrier function	negative effect										
nisin A (ITSISLCTPGCKTGALMGCNMKTATCHCSIHVSK; not fully specified (some residues, bridges); also: lantibiotic (ring and dehydro residues not placed); UniProt P13068 24-57, looked up) [reagent manufactured by Sigma-Aldrich, nisin content 2.5% by mass, balance sodium chloride and denatured milk solids]					observed to have the function of strengthening the barrier function		++++	++	+++++	++++	101%	100%	no effect	+++++	+++++	+++++
